Measurements as given in patent US9266939B2, “Compositions comprising natriuretic peptides and methods of use thereof” (Alexion Pharmaceuticals, Inc., priority 2010, dated 2016).
Values joined by “and” are separate entries in the source; they are usually repeats but may differ in a detail not shown here. Equal values may be shown once. Marks after values point to notes of the source that are not given here.

Tested on: wild-type (CD-1) mice
Assay: Daily bolus SC injection of NC2st on bone growth in wild-type (CD-1) mice
Assay type: in vivo
Experimental: The study was designed to evaluate the relationship between different doses of NC2st and the pharmacologic response on bone. The relationship was evaluated by measuring the effect of increasing doses of NC2st (SEQ ID NO: 502; as described, e.g., in Example 1) on bone growth in wild-type (WT, CD-1) mice. Bone growth response of wild-type and Fgfr3^369/+ (ACH) mice was compared.
CD-1 mice are a standard rodent species for use in pharmacodynamic studies. Briefly, nursing mothers with fostered female pups of 13 to 16 days were obtained. At the age of 21 days, pups were weaned and randomized based on body weight into treatment groups.
The animals received NC2st as a subcutaneous injection into the interscapular region as described in Table 11 below.
CD-1 mice were treated at 3 weeks old at the indicated doses for 35 consecutive days, followed by necropsy 24 hours after the last injection.
Ex vivo radiographs of whole body, rib cage, and skull were taken using a Faxitron model MX-20 DC4 under constant conditions (26 kV, 10 sec at 1×, 3× and 3× magnification, respectively). Bone measurements were performed on the radiographic images of all animals in a blinded fashion using the software Image Processing and Analysis in Java (ImageJ).
Bone samples were cleaned of excess tissue (not scraped) and fixed. Length of femur and tibia was measured using a caliper.

[1] = day 36, Tx-10 (10 mg/kg SC once daily)
[2] = day 36, Tx-30 (30 mg/kg SC once daily)
[3] = day 36, Tx-100 (100 mg/kg SC once daily)

## NC2st: Fc-CNP fusion: Strep-tag II, TEV site, human IgG-1 Fc, 16-amino acid glycine-rich linker, CNP22; SEQ ID NO: 502
Tx-30
  treatment time after which crown-rump length in vivo differed significantly from Vehicle: 2 weeks
  treatment time after which tail length in vivo differed significantly from Vehicle: 2 weeks
  treatment time after which tibia length in vivo differed significantly from Vehicle: 4 weeks
Tx-100
  treatment time after which crown-rump length in vivo differed significantly from Vehicle: 2 weeks
  treatment time after which tail length in vivo differed significantly from Vehicle: 2 weeks
  treatment time after which tibia length in vivo differed significantly from Vehicle: 2 weeks
[1]
  % Δ Cervical segment (X-Ray) compared to Vehicle: 8.8%
  % Δ Circularity index (X-Ray) compared to Vehicle: −1.9%
  % Δ Crown-rump length in vivo compared to Vehicle: 4.4%
  % Δ Foramen magnum height compared to Vehicle: 1.2%
  % Δ Foramen magnum width compared to Vehicle: 1.3%
  % Δ Left Femur length compared to Vehicle: 3.3%
  % Δ Left Humerus length compared to Vehicle: 1.6%
  % Δ Left Tibia length compared to Vehicle: 2.8%
  % Δ Left Ulna length compared to Vehicle: 0.71%
  % Δ Lumbar segment (X-Ray) compared to Vehicle: 6.2%
  % Δ Metatarsal bone (3rd digit) (X-Ray) compared to Vehicle: 5.2%
  % Δ Naso-anal length (X-Ray) compared to Vehicle: 6.5%
  % Δ Occipital-front distance (X-Ray) compared to Vehicle: 1.4%
  % Δ Right Tibia length in vivo compared to Vehicle: 1.1%
  % Δ Sternum length (X-Ray) compared to Vehicle: 6.9%
  % Δ Tail length in vivo compared to Vehicle: 6.1%
  % Δ Thoracic segment (X-Ray) compared to Vehicle: 11.4%
  % Δ Total CTL segments (X-Ray) compared to Vehicle: 8.9%
  Cervical segment (X-Ray): 9.00 mm
  Circularity index (X-Ray): 0.370
  Crown-rump length in vivo: 99.1 mm
  Foramen magnum height: 4.13 mm
  Foramen magnum width: 4.72 mm
  Left Femur length: 15.6* mm
  Left Humerus length: 12.4 mm
  Left Tibia length: 18.5 mm
  Left Ulna length: 14.1 mm
  Lumbar segment (X-Ray): 20.5* mm
  Metatarsal bone (3rd digit) (X-Ray): 24.5* mm
  Naso-anal length (X-Ray): 115* mm
  Occipital-front distance (X-Ray): 42.9 mm
  Right Tibia length in vivo: 19.0 mm
  Sternum length (X-Ray): 38.5* mm
  Tail length in vivo: 102 mm
  Thoracic segment (X-Ray): 25.5* mm
  Total CTL segments (X-Ray): 55.0* mm
  Δ Cervical segment (X-Ray) compared to Vehicle: 0.73 mm
  Δ Circularity index (X-Ray) compared to Vehicle: −0.007
  Δ Crown-rump length in vivo compared to Vehicle: 4.2 mm
  Δ Foramen magnum height compared to Vehicle: 0.05 mm
  Δ Foramen magnum width compared to Vehicle: 0.06 mm
  Δ Left Femur length compared to Vehicle: 0.5 mm
  Δ Left Humerus length compared to Vehicle: 0.2 mm
  Δ Left Tibia length compared to Vehicle: 0.5 mm
  Δ Left Ulna length compared to Vehicle: 0.10 mm
  Δ Lumbar segment (X-Ray) compared to Vehicle: 1.2 mm
  Δ Metatarsal bone (3rd digit) (X-Ray) compared to Vehicle: 1.2 mm
  Δ Naso-anal length (X-Ray) compared to Vehicle: 7.0 mm
  Δ Occipital-front distance (X-Ray) compared to Vehicle: 0.6 mm
  Δ Right Tibia length in vivo compared to Vehicle: 0.20 mm
  Δ Sternum length (X-Ray) compared to Vehicle: 2.5 mm
  Δ Tail length in vivo compared to Vehicle: 5.9 mm
  Δ Thoracic segment (X-Ray) compared to Vehicle: 2.6 mm
  Δ Total CTL segments (X-Ray) compared to Vehicle: 4.5 mm
[2]
  % Δ Cervical segment (X-Ray) compared to Vehicle: 13.8%
  % Δ Circularity index (X-Ray) compared to Vehicle: −4.0%
  % Δ Crown-rump length in vivo compared to Vehicle: 7.5%
  % Δ Foramen magnum height compared to Vehicle: 0.98%
  % Δ Foramen magnum width compared to Vehicle: 1.5%
  % Δ Left Femur length compared to Vehicle: 6.0%
  % Δ Left Humerus length compared to Vehicle: 2.5%
  % Δ Left Tibia length compared to Vehicle: 5.0%
  % Δ Left Ulna length compared to Vehicle: 3.6%
  % Δ Lumbar segment (X-Ray) compared to Vehicle: 9.3%
  % Δ Metatarsal bone (3rd digit) (X-Ray) compared to Vehicle: 6.4%
  % Δ Naso-anal length (X-Ray) compared to Vehicle: 9% and 9.3%
  % Δ Occipital-front distance (X-Ray) compared to Vehicle: 1.2%
  % Δ Right Tibia length in vivo compared to Vehicle: 3.2%
  % Δ Sternum length (X-Ray) compared to Vehicle: 10.8%
  % Δ Tail length in vivo compared to Vehicle: 10.3%
  % Δ Thoracic segment (X-Ray) compared to Vehicle: 14.4%
  % Δ Total CTL segments (X-Ray) compared to Vehicle: 12.3%
  Cervical segment (X-Ray): 9.41* mm
  Circularity index (X-Ray): 0.362
  Crown-rump length in vivo: 102* mm
  Foramen magnum height: 4.12 mm
  Foramen magnum width: 4.73 mm
  Left Femur length: 16.0* mm
  Left Humerus length: 12.5* mm
  Left Tibia length: 18.9* mm
  Left Ulna length: 14.5 mm
  Lumbar segment (X-Ray): 21.1* mm
  Metatarsal bone (3rd digit) (X-Ray): 24.8* mm
  Naso-anal length (X-Ray): 118* mm
  Occipital-front distance (X-Ray): 42.8 mm
  Right Tibia length in vivo: 19.4* mm
  Sternum length (X-Ray): 39.9* mm
  Tail length in vivo: 106* mm
  Thoracic segment (X-Ray): 26.2* mm
  Total CTL segments (X-Ray): 56.7* mm
  Δ Cervical segment (X-Ray) compared to Vehicle: 1.14 mm
  Δ Circularity index (X-Ray) compared to Vehicle: −0.015
  Δ Crown-rump length in vivo compared to Vehicle: 7.1 mm
  Δ Foramen magnum height compared to Vehicle: 0.04 mm
  Δ Foramen magnum width compared to Vehicle: 0.07 mm
  Δ Left Femur length compared to Vehicle: 0.9 mm
  Δ Left Humerus length compared to Vehicle: 0.3 mm
  Δ Left Tibia length compared to Vehicle: 0.9 mm
  Δ Left Ulna length compared to Vehicle: 0.5 mm
  Δ Lumbar segment (X-Ray) compared to Vehicle: 1.8 mm
  Δ Metatarsal bone (3rd digit) (X-Ray) compared to Vehicle: 1.5 mm
  Δ Naso-anal length (X-Ray) compared to Vehicle: 10 mm
  Δ Occipital-front distance (X-Ray) compared to Vehicle: 0.5 mm
  Δ Right Tibia length in vivo compared to Vehicle: 0.60 mm
  Δ Sternum length (X-Ray) compared to Vehicle: 3.9 mm
  Δ Tail length in vivo compared to Vehicle: 9.9 mm
  Δ Thoracic segment (X-Ray) compared to Vehicle: 3.3 mm
  Δ Total CTL segments (X-Ray) compared to Vehicle: 6.2 mm
[3]
  % Δ Cervical segment (X-Ray) compared to Vehicle: 20.3%
  % Δ Circularity index (X-Ray) compared to Vehicle: −7.4%
  % Δ Crown-rump length in vivo compared to Vehicle: 12.7%
  % Δ Foramen magnum height compared to Vehicle: 2.2%
  % Δ Foramen magnum width compared to Vehicle: 1.3%
  % Δ Left Femur length compared to Vehicle: 10% and 9.9%
  % Δ Left Humerus length compared to Vehicle: 6% and 5.7%
  % Δ Left Tibia length compared to Vehicle: 7% and 7.2%
  % Δ Left Ulna length compared to Vehicle: 6% and 5.7%
  % Δ Lumbar segment (X-Ray) compared to Vehicle: 13.5%
  % Δ Metatarsal bone (3rd digit) (X-Ray) compared to Vehicle: 12.0%
  % Δ Naso-anal length (X-Ray) compared to Vehicle: 13%
  % Δ Occipital-front distance (X-Ray) compared to Vehicle: 2.1%
  % Δ Right Tibia length in vivo compared to Vehicle: 6.4%
  % Δ Sternum length (X-Ray) compared to Vehicle: 12.5%
  % Δ Tail length in vivo compared to Vehicle: 16.5%
  % Δ Thoracic segment (X-Ray) compared to Vehicle: 21.0%
  % Δ Total CTL segments (X-Ray) compared to Vehicle: 17.8%
  Cervical segment (X-Ray): 9.95* mm
  Circularity index (X-Ray): 0.349*
  Crown-rump length in vivo: 107* mm
  Foramen magnum height: 4.17 mm
  Foramen magnum width: 4.72 mm
  Left Femur length: 16.6* mm
  Left Humerus length: 12.9* mm
  Left Tibia length: 19.3* mm
  Left Ulna length: 14.8* mm
  Lumbar segment (X-Ray): 21.9* mm
  Metatarsal bone (3rd digit) (X-Ray): 26.1* mm
  Naso-anal length (X-Ray): 122* mm
  Occipital-front distance (X-Ray): 43.2* mm
  Right Tibia length in vivo: 20.0* mm
  Sternum length (X-Ray): 40.5* mm
  Tail length in vivo: 112* mm
  Thoracic segment (X-Ray): 27.7* mm
  Total CTL segments (X-Ray): 59.5* mm
  Δ Cervical segment (X-Ray) compared to Vehicle: 1.68 mm
  Δ Circularity index (X-Ray) compared to Vehicle: −0.028
  Δ Crown-rump length in vivo compared to Vehicle: 12.1 mm
  Δ Foramen magnum height compared to Vehicle: 0.09 mm
  Δ Foramen magnum width compared to Vehicle: 0.06 mm
  Δ Left Femur length compared to Vehicle: 1.5 mm
  Δ Left Humerus length compared to Vehicle: 0.7 mm
  Δ Left Tibia length compared to Vehicle: 1.3 mm
  Δ Left Ulna length compared to Vehicle: 0.8 mm
  Δ Lumbar segment (X-Ray) compared to Vehicle: 2.6 mm
  Δ Metatarsal bone (3rd digit) (X-Ray) compared to Vehicle: 2.8 mm
  Δ Naso-anal length (X-Ray) compared to Vehicle: 14 mm
  Δ Occipital-front distance (X-Ray) compared to Vehicle: 0.9 mm
  Δ Right Tibia length in vivo compared to Vehicle: 1.2 mm
  Δ Sternum length (X-Ray) compared to Vehicle: 4.5 mm
  Δ Tail length in vivo compared to Vehicle: 15.9 mm
  Δ Thoracic segment (X-Ray) compared to Vehicle: 4.8 mm
  Δ Total CTL segments (X-Ray) compared to Vehicle: 9.0 mm
